Reference: patent US8034768B2, “Composition and method for the treatment of diseases affected by histone deacetylase inhibitors” (Board of Regents, The University of Texas System, priority 2007, dated 2011)
Starred links: 1 amine or outer side, 2 acyl side, 3 side chain; linkers in the order of their positions; H or OH if unused. Positions of bridges follow the written chain, without caps; N, C: chain ends. Non-standard residues stand in square brackets, D forms with d. Residues, ends and D or L forms follow the SMILES beside them. 1Nal = N[C@@H](Cc1cccc2ccccc12)C(=O)O; 2Nal = N[C@@H](Cc1ccc2ccccc2c1)C(=O)O; Cysteamide = C(CS[*:3])N[*:1]

What was measured:
prostate cancer cells = type: cell-based, human
Method: (§1) To evaluate anti-tumoral activity of the modified FK228 analogues, human transitional carcinoma cell lines T24, TCCSUP, 253J and human prostate cancer cell lines PC-3, LNCaP, Du-145 were cultured in T medium (Invitrogen) supplemented with 5% fetal bovine serum and 1% penicillin-streptomycin. 2×10^3 Cells in 50 μL of medium were plated into each well of a 96-well plate one day before adding compound. Each compound was diluted with DMSO to two folds of the concentrations, then 50 μL of the compound-containing medium was added into cells. Each treatment was in triplicate. Three days later, cell proliferation was measured with a cell proliferation kit (Roche). Briefly, 10 μL of MTT (3-[4,5-dimethylthiazol-2-yl]-2,5-diphenyl tetrazolium bromide) was added into each well for 4 hours, then 100 μL of the solubilization solution was added and cells were incubated for overnight. The spectrophotometrical absorbance of the samples was measured with a SpectraMax M5 plate reader (Molecular Devices) at 565 nm. The data were presented as percentage inhibition using non-treated cells as control.
FIGS. 9-11 are graphs showing dose-dependent growth inhibition of cancer cells (prostate and bladder cancers) by modified FK228 analogues. […] FIG. 10 includes the general structure in FIG. 10A including R groups. The R groups are defined in FIG. 10B and growth inhibition for the specific composition depicted in FIG. 10B are shown in FIG. 10C. […] Similarly, FIG. 11 includes the general structure in FIG. 1A including R groups. The R groups are defined in FIG. 1B and growth inhibition for the specific composition depicted in FIG. 10B are shown in FIG. 1C. […] FIG. 11A is a structure of the modified FK228 analogues and the side chain functional groups of the structure in FIG. 11A is shown in FIG. 11B. FIG. 11C is a graph of the activity as a function of side chain seen in FIG. 11B.

[1] = system: 3 prostate and 3 bladder cancer cells; experiment: MTT cell proliferation assay on a variety of cancer cells (FIG. 10); type: cell-based, human
Method: as §1
FIGS. 9-11 are graphs showing dose-dependent growth inhibition of cancer cells (prostate and bladder cancers) by modified FK228 analogues. […] FIG. 10 includes the general structure in FIG. 10A including R groups. […]

K562 cells = experiment: Cell viability of K562 cells treated for γ-globin expression study; type: cell-based; conditions: about 48 hours, about 0.3 μM
Method: The synthesized modified FK228 analogues of the present invention were assessed to examine their capability to induce γ-globin expression. K562 cells were treated with the synthesized modified FK228 analogues at various concentrations (e.g., between about 0.01 nM and about 10 μM) for about 48 hours and expression of γ-globin was determined by real-time PCR as well as checking cell viability.

Row | GI50 (prostate cancer cells) [nM] | Compound | cytotoxicity on a variety of cancer cells [1] | cell viability (K562 cells)
1 | 170 | CC(C)[C@H]1NC(=O)C[C@@H]2NC(=O)[C@H](Cc3ccccc3)NC(=O)[C@H](Cc3ccc4ccccc4c3)NC(=O)[C@@H](CSSCCNC2=O)NC1=O [JMA46] ([dV][dC][2Nal]FD-Cysteamide; disulfide 2-C; lactam N-5) |  | 
2 | 33 | CC(C)[C@H]1NC(=O)C[C@@H]2NC(=O)[C@H](Cc3ccc4ccccc4c3)NC(=O)[C@H](Cc3ccc4ccccc4c3)NC(=O)[C@@H](CSSCCNC2=O)NC1=O [JMA33] ([dV][dC][2Nal][2Nal]D-Cysteamide; disulfide 2-C; lactam N-5) |  | 

Continued, compound first:

Row | Compound | GI50 (prostate cancer cells) [nM] | cytotoxicity on a variety of cancer cells [1] | cell viability (K562 cells)
3 | CC(C)[C@H]1NC(=O)C[C@@H]2NC(=O)[C@H](Cc3cccc4ccccc34)NC(=O)[C@H](Cc3cccc4ccccc34)NC(=O)[C@@H](CSSCCNC2=O)NC1=O [JMA47] ([dV][dC][1Nal][1Nal]D-Cysteamide; disulfide 2-C; lactam N-5) | 47 |  | 
4 | CC(C)[C@H]1NC(=O)C[C@@H]2NC(=O)[C@H](Cc3ccccc3)NC(=O)[C@H](Cc3ccccc3)NC(=O)[C@@H](CSSCCNC2=O)NC1=O [JMA26] ([dV][dC]FFD-Cysteamide; disulfide 2-C; lactam N-5) | 460 | high cytotoxicity | 
5 | CC(/C=C/C(=O)NO)=C\[C@@H](C)C(=O)c1ccc(N(C)C)cc1 [TSA, Trichostatin A] |  |  | 30-40%
